Reference: patent publication US20250136559A1, “SMO MODULATOR COMPOUNDS” (OMASS THERAPEUTICS LIMITED, priority 2022, published 2025)

Experiments:
Assay type in all cases: cell-based
[1] = biological target: T1, mouse SMO^WT (Mus musculus, UniProt P56726); test: Mouse assay: Gli1 qPCR in MEF cells stably expressing mouse SMO WT; details: mSHh-treated, 24 hours; for IC50: Gli1 inhibition by qPCR, read-out: Mouse WT pIC50 (converted); for Mouse WT % Inh: percentage Gli1 inhibition
T1 construct: expressed in transfected cells
T1 sequence (P56726 33-793): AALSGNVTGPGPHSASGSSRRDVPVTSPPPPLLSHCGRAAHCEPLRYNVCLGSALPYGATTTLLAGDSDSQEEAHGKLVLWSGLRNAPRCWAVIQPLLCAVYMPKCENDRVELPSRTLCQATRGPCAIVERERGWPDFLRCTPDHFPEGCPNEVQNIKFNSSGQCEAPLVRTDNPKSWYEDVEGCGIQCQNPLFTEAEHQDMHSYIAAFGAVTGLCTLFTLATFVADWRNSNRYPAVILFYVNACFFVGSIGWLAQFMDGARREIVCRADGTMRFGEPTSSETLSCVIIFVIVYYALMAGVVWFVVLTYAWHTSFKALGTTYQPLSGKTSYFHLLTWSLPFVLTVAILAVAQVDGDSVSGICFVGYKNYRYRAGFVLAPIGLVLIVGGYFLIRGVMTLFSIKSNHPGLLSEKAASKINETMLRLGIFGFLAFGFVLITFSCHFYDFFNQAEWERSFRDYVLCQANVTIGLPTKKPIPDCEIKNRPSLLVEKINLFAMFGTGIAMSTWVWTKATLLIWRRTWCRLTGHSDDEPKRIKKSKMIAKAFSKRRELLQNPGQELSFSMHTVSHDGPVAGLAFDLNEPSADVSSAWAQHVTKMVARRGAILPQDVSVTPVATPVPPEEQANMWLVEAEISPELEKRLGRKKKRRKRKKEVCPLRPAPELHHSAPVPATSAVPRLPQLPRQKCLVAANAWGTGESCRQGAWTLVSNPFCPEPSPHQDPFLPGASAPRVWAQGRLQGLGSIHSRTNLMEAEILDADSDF
Protocol: (§1) Cell culture. All materials were purchased from Sigma-Aldrich, unless otherwise stated.
(§2) Compound treatment. […] After 1 hour incubation, cells were treated with assay medium containing mSHh prepared at 2.5× of final assay concentrations specified in the text and incubated for a further 24 hours at 37′C in a humidified 95% air/5% CO2 atmosphere prior to qPCR analysis.
(§3) Cell lysis and one-step qPCR. The Cells-to-CT™ 1-Step TaqMan® Kit was used in conjunction with TaqMan primer-probe assays for the detection of Gli1 (FAM, Mm00494654_m1) and Gusb (VIC, Mm01197698_m1) genes (all purchased from Life Technologies). Following 24 hours cell treatment, spent medium was removed and cells were washed with PBS before the application of lysis and stop solution as per manufacturer's instructions. The qPCR reactions were run in a 384-well PCR plate using master mix prepared according to manufacturer's instructions and cell lysate samples from treatment wells. Real-time PCR amplification was detected using the Bio-Rad CFX384 Touch PCR system. Four experimental replicates (two cell replicates and two qPCR replicates) were performed for each compound concentration tested. Real-time data were analysed using the CFX Maestro software (Bio-Rad) and obtained expression values were converted to percentage Gli1 inhibition by normalising to the average Gli1 expression of mSHh-treated control samples.

[2] = biological target: T2, mouse SMO^D473H (Mus musculus, UniProt P56726, D477H); test: Mouse assay: Gli1 qPCR in MEF cells stably expressing mouse SMO D473H; details: mSHh-treated, 24 hours; for IC50: Gli1 inhibition by qPCR, read-out: Mouse D473H pIC50 (converted); for Mouse D473H % Inh: percentage Gli1 inhibition
T2 construct: expressed in transfected cells
T2 sequence (P56726 33-793 D477H): as the sequence (P56726 33-793) above, with D445H counted along it
Protocol: as §1, §2, §3

[3] = biological target: T3, mouse SMO^W535L (Mus musculus, UniProt P56726, W539L); test: Mouse assay: Gli1 qPCR in MEF cells stably expressing mouse SMO W535L; details: mSHh-treated, 24 hours; for IC50: Gli1 inhibition by qPCR, read-out: Mouse W535L pIC50 (converted); for Mouse W535L % Inh: percentage Gli1 inhibition
T3 construct: expressed in transfected cells
T3 sequence (P56726 33-793 W539L): as the sequence (P56726 33-793) above, with W507L counted along it
Protocol: as §1, §2, §3

| Compound | IC50 [1] | Mouse WT % Inh [1] | IC50 [2] | Mouse D473H % Inh [2] | IC50 [3] | Mouse W535L % Inh [3] |
| --- | --- | --- | --- | --- | --- | --- |
| COc1ccc(-c2n[nH]c(-c3ccc(NC(=O)c4cccc(CN5CCS(=O)(=O)CC5)c4)cc3)n2)cc1 [Example 3-12, 3-[(1,1-Dioxo-1,4-thiazinan-4-yl)methyl]-N-[4-[5-(4-methoxyphenyl)-1H-1,2,4-triazol-3-yl]phenyl]benzamide] | 12.6 nM | 99.0% | 200 nM | 97.5% | 316 nM | 53.3% |
| O=C(Nc1ccc(-c2nc(-c3cccc(Oc4nccs4)c3)n[nH]2)cc1)c1cccc(CN2CCS(=O)(=O)CC2)c1 [Example 3-13, 3-[(1,1-Dioxo-1,4-thiazinan-4-yl)methyl]-N-[4-[3-[3-(1,3-thiazol-2-yloxy)phenyl]-1H-1,2,4-triazol-5-yl]phenyl]benzamide] | 79.4 nM | 97.4% | 631 nM | 78.5% | > 3310 nM | 76.7% |
| O=C(Nc1ccc(-c2nc(-c3ccc(COc4ccccc4F)cc3)n[nH]2)cc1)c1cccc(CN2CCS(=O)(=O)CC2)c1 [Example 3-14, 3-[(1,1-Dioxo-1,4-thiazinan-4-yl)methy]-N-[4-[3-[4-[(2-fluorophenoxy)methyl]phenyl]-1H-1,2,4-triazol-5-yl]phenyl]benzamide] | 39.8 nM | 97.3% | 251 nM | 95.2% | 631 nM | 50.9% |
| O=C(Nc1ccc(-c2nc(-c3ccccn3)n[nH]2)cc1)c1cccc(CN2CCS(=O)(=O)CC2)c1 [Example 3-15, 3-[(1,1-Dioxo-1,4-thiazinan-4-yl)methyl]-N-[4-(3-pyridin-2-yl-1H-1,2,4-triazol-5-yl)phenyl]benzamide] | 79.4 nM | 98.9% | 1000 nM | 97.0% | 398 nM | 53.4% |
| O=C(Nc1ccc(-c2nc(-c3ccc(C(F)(F)F)s3)n[nH]2)cc1)c1cccc(CN2CCS(=O)(=O)CC2)c1 [Example 3-16, 3-[(1,1-Dioxo-1,4-thiazinan-4-yl)methyl]-N-[4-[3-[5-(trifluoromethyl)thiophen-2-yl]-1H-1,2,4-triazol-5-yl]phenyl]benzamide] | 100 nM | 99.4% | 794 nM | 93.9% | 794 nM | 58.5% |
| O=C(Nc1ccc(-c2nc(Cc3ccccc3)n[nH]2)cc1)c1cccc(CN2CCS(=O)(=O)CC2)c1 [Example 3-17, N-[4-(3-Benzyl-1H-1,2,4-triazol-5-yl)phenyl]-3-[(1,1-dioxo-1,4-thiazinan-4-yl)methyl]benzamide] | 6.31 nM | 99.4% | 100 nM | 99.0% | 39.8 nM | 54.3% |
| Cc1ccc(Cc2n[nH]c(-c3ccc(NC(=O)c4cccc(CN5CCS(=O)(=O)CC5)c4)cc3)n2)cc1 [Example 3-18, 3-[(1,1-Dioxo-1,4-thiazinan-4-yl)methyl]-N-[4-[5-[(4-methylphenyl)methyl]-1H-1,2,4-triazol-3-yl]phenyl]benzamide] | 3.16 nM | 98.5% | 79.4 nM | 98.1% | 25.1 nM | 65.7% |
| O=C(Nc1ccc(-c2nc(Cc3ccccc3F)n[nH]2)cc1)c1cccc(CN2CCS(=O)(=O)CC2)c1 [Example 3-19, 3-[(1,1-Dioxo-1,4-thiazinan-4-yl)methy]-N-[4-[3-[(2-fluorophenyl)methyl]-1H-1,2,4-triazol-5-yl]phenyl]benzamide] | 25.1 nM | 99.1% | 316 nM | 96.9% | 39.8 nM | 64.3% |
| O=C(Nc1ccc(-c2nc(Cc3cccc(F)c3)n[nH]2)cc1)c1cccc(CN2CCS(=O)(=O)CC2)c1 [Example 3-20, 3-[(1,1-Dioxo-1,4-thiazinan-4-yl)methy]-N-[4-[3-[(3-fluorophenyl)methyl]-1H-1,2,4-triazol-5-yl]phenyl]benzamide] | 15.8 nM | 99.0% | 251 nM | 96.8% | 25.1 nM | 66.1% |
| O=C(Nc1ccc(-c2nc(Cc3ccc(F)cc3)n[nH]2)cc1)c1cccc(CN2CCS(=O)(=O)CC2)c1 [Example 3-21, 3-[(1,1-Dioxo-1,4-thiazinan-4-yl)methy]-N-[4-[3-[(4-fluorophenyl)methyl]-1H-1,2,4-triazol-5-yl]phenyl]benzamide] | 100 nM | 97.5% | 794 nM | 82.3% | 501 nM | 64.1% |
| COc1cccc(Cc2n[nH]c(-c3ccc(NC(=O)c4cccc(CN5CCS(=O)(=O)CC5)c4)cc3)n2)c1 [Example 3-22, 3-[(1,1-Dioxo-1,4-thiazinan-4-yl)methy]-N-[4-[5-[(3-methoxyphenyl)methyl]-1H-1,2,4-triazol-3-yl]phenyl]benzamide] | 7.94 nM | 98.5% | 63.1 nM | 98.2% | 31.6 nM | 60.1% |
| O=C(Nc1ccc(-c2nc(Cc3ccc(Cl)cc3)n[nH]2)cc1)c1cccc(CN2CCS(=O)(=O)CC2)c1 [Example 3-23, N-[4-[3-[(4-Chlorophenyl)methyl]-1H-1,2,4-triazol-5-yl]phenyl]-3-[(1,1-dioxo-1,4-thiazinan-4-yl)methyl]benzamide] | 7.94 nM | 99.5% | 316 nM | 95.0% | 25.1 nM | 58.2% |
| Cc1ccc(Cc2n[nH]c(-c3ccc(NC(=O)c4cccc(CN5CCS(=O)(=O)CC5)c4)cc3)n2)cc1C [Example 3-25, N-[4-[5-[(3,4-Dimethylphenyl)methyl]-1H-1,2,4-triazol-3-yl]phenyl]-3-[(1,1-dioxo-1,4-thiazinan-4-yl)methyl]benzamide] | 2 nM | 98.5% | 100 nM | 97.4% | 39.8 nM | 80.5% |
| O=C(Nc1ccc(-c2nc(Cc3cc(Cl)ccc3Cl)n[nH]2)cc1)c1cccc(CN2CCS(=O)(=O)CC2)c1 [Example 3-26, N-[4-[3-[(2,5-Dichlorophenyl)methyl]-1H-1,2,4-triazol-5-yl]phenyl]-3-[(1,1-dioxo-1,4-thiazinan-4-yl)methyl]benzamide] | 15.8 nM | 98.3% | 501 nM | 87.1% | 251 nM | 64.8% |
| Cc1cc(Cc2n[nH]c(-c3ccc(NC(=O)c4cccc(CN5CCS(=O)(=O)CC5)c4)cc3)n2)ccc1Br [Example 3-27, N-[4-[5-[(4-Bromo-3-methylphenyl)methyl]-1H-1,2,4-triazol-3-yl]phenyl]-3-[(1,1-dioxo-1,4-thiazinan-4-yl)methyl]benzamide] | 15.8 nM | 99.3% | 631 nM | 97.0% | 158 nM | 57.3% |
| O=C(Nc1ccc(-c2nc(Cc3ccc4c(c3)OCCO4)n[nH]2)cc1)c1cccc(CN2CCS(=O)(=O)CC2)c1 [Example 3-28, N-[4-[3-(2,3-Dihydro-1,4-benzodioxin-6-ylmethyl)-1H-1,2,4-triazol-5-yl]phenyl]-3-[(1,1-dioxo-1,4-thiazinan-4-yl)methyl]benzamide] | 79.4 nM | 99.4% | 794 nM | 97.7% | 316 nM | 59.7% |
| O=C(Nc1ccc(-c2nc(Cc3cc4c(cc3Cl)OCO4)n[nH]2)cc1)c1cccc(CN2CCS(=O)(=O)CC2)c1 [Example 3-29, N-[4-[3-[(6-Chloro-1,3-benzodioxol-5-yl)methyl]-1H-1,2,4-triazol-5-yl]phenyl]-3-[(1,1-dioxo-1,4-thiazinan-4-yl)methyl]benzamide] | 25.1 nM | 99.1% | 251 nM | 98.9% | 126 nM | 64.8% |
| COc1ccc(Cc2n[nH]c(-c3ccc(NC(=O)c4cccc(CN5CCS(=O)(=O)CC5)c4)cc3)n2)cn1 [Example 3-30, 3-[(1,1-Dioxo-1,4-thiazinan-4-yl)methyl]-N-[4-[5-[(6-methoxypyridin-3-yl)methyl]-1H-1,2,4-triazol-3-yl]phenyl]benzamide] | 79.4 nM | 99.0% | 631 nM | 98.4% | 501 nM | 69.1% |
